Laboratory results: US10201528B2, “Method of treating multiple sclerosis” (Assistance Publique Hopitaux De Paris, priority 2012, dated 2019)
“Also recorded” adds a separate entry of the source.

Legend:
[1] = test system: multiple sclerosis; settings: attacks less numerous and less severe, improvement of lesions visible by MRI; cited from earlier work
[2] = test system: patients with a progressive form of multiple sclerosis; assay: Clinical cases: patients with progressive multiple sclerosis treated with biotin; assay type: in vivo, human
Protocol: Three patients with a progressive form of multiple sclerosis received biotin. […]
A person, without any particular personal history. […] Treatment with interferon Ib (betaferon) began in February 2008.
Three Solumedrol infusions were carried out in September 2010 and then 4 infusions between 8 and 11 Aug.
Treatment with biotin was then introduced on 6 Mar. 2012 at the dose of 100 mg/day until March 30 and then 200 mg/day from April 6 to 6 May 2012 then 300 mg/day from 6 May 2012 to 7 Jun. 2012. Two complete ophthalmological examinations were carried out during this period of time: a first on 30 Mar. […]

[3] = patient 1, after six months of treatment
[4] = patient 1, biotin 100 mg three times a day, three months

Molecule: glatiramer acetate
- efficacy in multiple sclerosis [1]: proven to be effective

Molecule: C[C@H]1C[C@@H]2[C@H]([C@@H](O)C[C@@]3(C)[C@H]2CC[C@]3(O)C(=O)COC(=O)CCC(=O)O)[C@@]2(C)C=CC(=O)C=C12 [Solumedrol]
- diplopia-type attack ([2]; patient 2, July 2008, infusions): regressive
- progressive decrease in visual acuity ([2]; patient 2, three infusions September 2010 and 4 infusions 8-11 Aug. 2011, before biotin): without any effect
- evolvement of left homonymous lateral hemianopsia ([2]; patient 3, 2004, after 3 infusions, symptomology subsequently reappeared): initially been favourable

Molecule: O=C(O)CCCC[C@@H]1SC[C@@H]2NC(=O)N[C@@H]21 [biotin]
- brain MRI spectro: choline peak and choline/creatine ratio [2, 3]: clear decrease
- visual evoked potentials: P100 wave on the right [2, 3]: beginnings of a P100 wave on the right
- visual evoked potentials: latency of left P100 wave ([2]; patient 1, biotin 100 mg three times a day, after six months of treatment): 111.8 ms
- MRI and brain MRI spectro [2, 4]: unchanged
- balance [2, 4]: more assured
- visual evoked potentials: P100 wave on the left [2, 4]: reappearance of a P100 wave on the left
- visual evoked potentials: P100 wave on the right [2, 4]: no response was noted on the right
- visual evoked potentials: latency of left P100 wave [2, 4]: 126.5 ms
- visual acuity on the left ([2]; patient 1, biotin 100 mg three times a day, three months later (before treatment 2/10 on the left)): 2/10
- visual acuity on the right ([2]; patient 1, biotin 100 mg three times a day, three months later (before treatment could only count fingers on the right)): 5/10
- visual evoked potentials: P100 wave ([2]; patient 1, biotin increased to 600 mg/day, after nine months of treatment): bilateral P100 wave was noted
- motor problems ([2]; patient 1, discussion): corrected and were stabilized
- balance between beginning of treatment and last visit ([2]; patient 1, long-term treatment): also remained stable
- visual acuity between beginning of treatment and last visit ([2]; patient 1, long-term, 300 mg/day for 15 months then 100 mg/day for 9 months): remained stable
- visual acuity compared with examination before treatment ([2]; patient 2, biotin 100 mg/day from 6 Mar. 2012, examination 30 Mar. 2012): no improvement
- visual field (automated campimetry): homonymous lateral hemianopsia ([2]; patient 3, biotin 100 mg/day begun 12 Apr. 2012, examination 30 Jun. 2012): improvement in the visual field in the upper left quadrant; also recorded: clear improvement
- time to improvement after introduction of the treatment ([2]; the three patients): within three months
